# Source: patent US20100261693A1, “METHOD FOR TREATING CUSHING'S SYNDROME” (priority 2007, published 2010)
# Assays:
# [1] = system: Cushing's syndrome (ectopic ACTH secretion); details: cited from earlier work
# [2] = system: Cushing's syndrome secondary to ectopic ACTH secretion; experiment: Case-study: mifepristone in a patient with Cushing's syndrome secondary to ectopic ACTH secretion; format: in vivo, human; details: person
# Text: A subject, first presented with clinical symptoms of Cushing's syndrome in August 2006, and they were diagnosed with Cushing's syndrome secondary to ectopic ACTH secretion in March 2007.
# [3] = 200 mg three times a day, after 2 weeks of treatment
smiles,measurement,setting,value
CC#C[C@]1(O)CC[C@H]2[C@@H]3CCC4=CC(=O)CCC4=C3[C@@H](c3ccc(N(C)C)cc3)C[C@@]21C [mifepristone],outcome of fractioned dosage,"[1]; fractioned dosage, young child",successfully given
same,efficacy in clinical trials,[1]; high-dose mifepristone once a day,some efficacy
same,concomitant insulin treatment,[2]; [3],insulin was stopped
same,dose of concomitant metformin,[2]; [3],decreased by two
same,general clinical consequences of hypercortisolism,[2]; [3],rapidly improved
same,glycemia,[2]; [3],returned to normal
same,dose of enalapril previously administered for hypertension,[2]; mifepristone 200 mg three times a day,decreased from 30 mg to 10 mg
